Patent US10800785B2, “Substituted pyrrolo[2,3-d]pyridazin-4-ones and pyrazolo[3,4-d]pyridazin-4-ones as protein kinase inhibitors” (Shanghai Fochon Pharmaceutical Co., Ltd., priority 2016, dated 2020)

test system: DOHH2 cells; assay: Cell proliferation assay (MTS) in DOHH2 cells, mechanism-based assay for BTK inhibition; settings: Homo sapiens, DOHH-2, 120 h incubation, 5000 cells/well
Text: Cell Proliferation Assays
MTS testing kit was purchased from Promega. The DMEM, Fetal bovine serum and Penicillin-Streptomycin were purchased from Gibco. Dimethyl sulfoxide (DMSO) was purchased from Sigma.
To investigate whether a compound is able to inhibit the activity of BTK in cells, a mechanism-based assay using DOHH2 (DSMZ catalog#: ACC47) and Mino (ATCC® Number CRL-3000™) cells was developed. In this assay, inhibition of BTK was detected by the inhibition of DOHH2 and Mino cell proliferations. DOHH2 or Mino cells were cultured in culture flasks to 40-80% confluence in RPMI-1640 plus 10% fetal bovine serum. C ells were collected and plated onto 96-well plates at desired cell density (DOHH2: 5000 cells/well; Mino: 10000 cells/well). Plates were incubated overnight at 37° C., with 5% CO2 to adhere. Compounds were added to the plates, and the final compound concentrations were 10000, 3333, 1111, […], 41, 14, 4.6 and 1.5 nM. Plates were placed at 37° C., with 5% CO2 for 120 h (DOHH2) or 72 h (Mino). 20 μl MTS/100 μl medium mixture solution were added to each well and the plates were incubated for exactly 2 hours. The reaction was stopped by adding 25 μl 10% SDS per well.
Select compounds prepared as described above were assayed according to the biological procedures described herein.

Compound	IC50 [nM]
CN1CC[C@@H]1/C=C/C(=O)N1CCC[C@@H](c2cn(-c3ccc(Oc4ccccc4)cc3)c3c(N)n[nH]c(=O)c23)C1 [Example 107, 7-amino-3-((S)-1-((E)-3-((R)-1-methylazetidin-2-yl)acryloyl)piperidin-3-yl)-1-(4-phenoxyphenyl)-1,5-dihydro-4H-pyrrolo[2,3-d]pyridazin-4-one]	737
CC#CC(=O)N1CC[C@H](c2nn(-c3ccc(Oc4ccccc4F)cc3)c3c(N)n[nH]c(=O)c23)C1 [Example 74, (S)-7-amino-3-(1-(but-2-ynoyl)pyrrolidin-3-yl)-1-(4-(2-fluorophenoxy)phenyl)-1,5-dihydro-4H-pyrazolo[3,4-d]pyridazin-4-one]	393
C=CC(=O)N1CCC[C@H](c2cn(-c3ccc(Oc4c(F)cccc4F)cc3)c3c(N)n[nH]c(=O)c23)C1 [Example 39, (R)-3-(1-acryloylpiperidin-3-yl)-7-amino-1-(4-(2,6-difluorophenoxy)phenyl)-1,5-dihydro-4H-pyrrolo[2,3-d]pyridazin-4-one]	31
CC#CC(=O)N1CC[C@@H](c2nn(-c3ccc(Oc4ccccc4F)cc3)c3c(N)n[nH]c(=O)c23)C1 [Example 73, (R)-7-amino-3-(1-(but-2-ynoyl)pyrrolidin-3-yl)-1-(4-(2-fluorophenoxy)phenyl)-1,5-dihydro-4H-pyrazolo[3,4-d]pyridazin-4-one]	440
CC#CC(=O)N1CCC[C@@H](c2cn(-c3ccc(Oc4ccccc4F)cc3)c3c(N)n[nH]c(=O)c23)C1 [Example 79, (S)-7-amino-3-(1-(but-2-ynoyl)piperidin-3-yl)-1-(4-(2-fluorophenoxy)phenyl)-1,5-dihydro-4H-pyrrolo[2,3-d]pyridazin-4-one]	164
CC#CC(=O)N1CCC[C@@H](c2nn(-c3ccc(Oc4ccccc4)cc3)c3c(N)n[nH]c(=O)c23)C1 [Example 69, (R)-7-amino-3-(1-(but-2-ynoyl)piperidin-3-yl)-1-(4-phenoxyphenyl)-1,5-dihydro-4H-pyrazolo [3,4-d]pyridazin-4-one]	863
CCN1CC[C@@H]1/C=C/C(=O)N1CCC[C@@H](c2cn(-c3ccc(Oc4ccccc4F)cc3)c3c(N)n[nH]c(=O)c23)C1 [Example 110, 7-amino-3-((S)-1-((E)-3-((R)-1-ethylazetidin-2-yl)acryloyl)piperidin-3-yl)-1-(4-(2-fluorophenoxy)phenyl)-1,5-dihydro-4H-pyrrolo[2,3-d]pyridazin-4-one]	123
CC#CC(=O)N1CC[C@H](c2nn(-c3ccc(Oc4c(F)cccc4F)cc3)c3c(N)n[nH]c(=O)c23)C1 [Example 82, (S)-7-amino-3-(1-(but-2-ynoyl)pyrrolidin-3-yl)-1-(4-(2,6-difluorophenoxy)phenyl)-1,5-dihydro-4H-pyrazolo[3,4-d]pyridazin-4-one]	687
CC#CC(=O)N1CC[C@H](c2cn(-c3ccc(Oc4c(F)cccc4F)cc3)c3c(N)n[nH]c(=O)c23)C1 [Example 84, (R)-7-amino-3-(1-(but-2-ynoyl)pyrrolidin-3-yl)-1-(4-(2,6-difluorophenoxy)phenyl)-1,5-dihydro-4H-pyrrolo[2,3-d]pyridazin-4-one]	369
C=CC(=O)N1CCC[C@@H](c2nn(-c3ccc(Oc4cc(F)cc(F)c4)cc3)c3c(N)n[nH]c(=O)c23)C1 [Example 58, (R)-3-(1-acryloylpiperidin-3-yl)-7-amino-1-(4-(3,5-difluorophenoxy)phenyl)-1,5-dihydro-4H-pyrazolo[3,4-d]pyridazin-4-one]	224
C=CC(=O)N1CCC[C@@H](c2nn(-c3ccc(Oc4cccc(F)c4F)cc3)c3c(N)n[nH]c(=O)c23)C1 [Example 56, (R)-3-(1-acryloylpiperidin-3-yl)-7-amino-1-(4-(2,3-difluorophenoxy)phenyl)-1,5-dihydro-4H-pyrazolo[3,4-d]pyridazin-4-one]	42
C=CC(=O)N1CC[C@@H](c2cn(-c3ccc(Oc4cc(F)cc(F)c4)cc3)c3c(N)n[nH]c(=O)c23)C1 [Example 22, (S)-3-(1-acryloylpyrrolidin-3-yl)-7-amino-1-(4-(3,5-difluorophenoxy)phenyl)-1,5-dihydro-4H-pyrrolo[2,3-d]pyridazin-4-one]	86
CC#CC(=O)N1CCC(c2nn(-c3ccc(Oc4ccccc4)cc3)c3c(N)n[nH]c(=O)c23)C1 (stereo not drawn) [Example 6, 7-amino-3-(1-(but-2-ynoyl)pyrrolidin-3-yl)-1-(4-phenoxyphenyl)-1,5-dihydro-4H-pyrazolo[3,4-d]pyridazin-4-one]	179
CN(C)C/C=C/C(=O)N1CC[C@@H](c2cn(-c3ccc(Oc4ccccc4F)cc3)c3c(N)n[nH]c(=O)c23)C1 [Example 94, (S,E)-7-amino-3-(1-(4-(dimethylamino)but-2-enoyl)pyrrolidin-3-yl)-1-(4-(2-fluorophenoxy)phenyl)-1,5-dihydro-4H-pyrrolo[2,3-d]pyridazin-4-one]	247
Nc1n[nH]c(=O)c2c([C@@H]3CCN(C(=O)/C=C/[C@H]4CCN4)C3)cn(-c3ccc(Oc4ccccc4)cc3)c12 [Example 97, 7-amino-3-((S)-1-((E)-3-((R)-azetidin-2-yl)acryloyl)pyrrolidin-3-yl)-1-(4-phenoxyphenyl)-1,5-dihydro-4H-pyrrolo[2,3-d]pyridazin-4-one]	701
CN(C)C/C=C/C(=O)N1CCC[C@@H](c2cn(-c3ccc(Oc4ccccc4F)cc3)c3c(N)n[nH]c(=O)c23)C1 [Example 104, (S,E)-7-amino-3-(1-(4-(dimethylamino)but-2-enoyl)piperidin-3-yl)-1-(4-(2-fluorophenoxy)phenyl)-1,5-dihydro-4H-pyrrolo[2,3-d]pyridazin-4-one]	151
C=CC(=O)N1CC[C@H](c2nn(-c3ccc(Oc4c(F)cccc4F)cc3)c3c(N)n[nH]c(=O)c23)C1 [Example 51, (S)-3-(1-acryloylpyrrolidin-3-yl)-7-amino-1-(4-(2,6-difluorophenoxy)phenyl)-1,5-dihydro-4H-pyrazolo[3,4-d]pyridazin-4-one]	215
C=CC(=O)N1CC[C@H](c2cn(-c3ccc(Oc4ccccc4F)cc3)c3c(N)n[nH]c(=O)c23)C1 [Example 23, (R)-3-(1-acryloylpyrrolidin-3-yl)-7-amino-1-(4-(2-fluorophenoxy)phenyl)-1,5-dihydro-4H-pyrrolo[2,3-d]pyridazin-4-one]	42
CN(C)C/C=C/C(=O)N1CCC[C@@H](c2cn(-c3ccc(Oc4ccccc4)cc3)c3c(N)n[nH]c(=O)c23)C1 [Example 103, (S,E)-7-amino-3-(1-(4-(dimethylamino)but-2-enoyl)piperidin-3-yl)-1-(4-phenoxyphenyl)-1,5-dihydro-4H-pyrrolo[2,3-d]pyridazin-4-one]	97
CC#CC(=O)N1CC[C@H](c2nn(-c3ccc(Oc4ccccc4)cc3)c3c(N)n[nH]c(=O)c23)C1 [Example 66, (S)-7-amino-3-(1-(but-2-ynoyl)pyrrolidin-3-yl)-1-(4-phenoxyphenyl)-1,5-dihydro-4H-pyrazolo [3,4-d]pyridazin-4-one]	242
CC#CC(=O)N1CCC(c2cn(-c3ccc(Oc4c(F)cccc4F)cc3)c3c(N)n[nH]c(=O)c23)C1 (stereo not drawn) [Example 4, 7-amino-3-(1-(but-2-ynoyl)pyrrolidin-3-yl)-1-(4-(2,6-difluorophenoxy)phenyl)-1,5-dihydro-4H-pyrrolo[2,3-d]pyridazin-4-one]	250
CC#CC(=O)N1CC[C@@H](c2cn(-c3ccc(Oc4ccccc4)cc3)c3c(N)n[nH]c(=O)c23)C1 [Example 67, (S)-7-amino-3-(1-(but-2-ynoyl)pyrrolidin-3-yl)-1-(4-phenoxyphenyl)-1,5-dihydro-4H-pyrrolo [2,3-d]pyridazin-4-one]	205
C=CC(=O)N1CCC[C@H](c2nn(-c3ccc(Oc4cccc(F)c4F)cc3)c3c(N)n[nH]c(=O)c23)C1 [Example 62, (S)-3-(1-acryloylpiperidin-3-yl)-7-amino-1-(4-(2,3-difluorophenoxy)phenyl)-1,5-dihydro-4H-pyrazolo[3,4-d]pyridazin-4-one]	147
CC#CC(=O)N1CC[C@H](c2cn(-c3ccc(Oc4ccccc4)cc3)c3c(N)n[nH]c(=O)c23)C1 [Example 68, (R)-7-amino-3-(1-(but-2-ynoyl)pyrrolidin-3-yl)-1-(4-phenoxyphenyl)-1,5-dihydro-4H-pyrrolo [2,3-d]pyridazin-4-one]	146
C=CC(=O)N1CCC[C@@H](c2nn(-c3ccc(Oc4c(F)cccc4F)cc3)c3c(N)n[nH]c(=O)c23)C1 [Example 57, (R)-3-(1-acryloylpiperidin-3-yl)-7-amino-1-(4-(2,6-difluorophenoxy)phenyl)-1,5-dihydro-4H-pyrazolo[3,4-d]pyridazin-4-one]	76
C=CC(=O)N1CC[C@@H](c2cn(-c3ccc(Oc4cccc(F)c4)cc3)c3c(N)n[nH]c(=O)c23)C1 [Example 18, (S)-3-(1-acryloylpyrrolidin-3-yl)-7-amino-1-(4-(3-fluorophenoxy)phenyl)-1,5-dihydro-4H-pyrrolo[2,3-d]pyridazin-4-one]	181
C=CC(=O)N1CC[C@H](c2nn(-c3ccc(Oc4cccc(F)c4F)cc3)c3c(N)n[nH]c(=O)c23)C1 [Example 50, (S)-3-(1-acryloylpyrrolidin-3-yl)-7-amino-1-(4-(2,3-difluorophenoxy)phenyl)-1,5-dihydro-4H-pyrazolo[3,4-d]pyridazin-4-one]	678
